Results published in patent publication US20250114460A1, “NOVEL PLK1 DEGRADATION INDUCING COMPOUND” (UPPTHERA, INC., priority 2021, published 2025).

target: T1, PLK1 (Homo sapiens, UniProt P53350); experiment: Luciferase assay for PLK1 in HeLa LgBit (Plk1-HiBit KI) cell line; format: cell-based; settings: 300 nM compound, luminescence after 9 hours
T1 construct: endogenous in cells; host or cells: HeLa LgBit (Plk1-HiBit KI): HeLa stably expressing LgBit, with a CRISPR/Cas9 knock-in of HiBit at the endogenous PLK1 locus
T1 sequence (P53350 whole entry): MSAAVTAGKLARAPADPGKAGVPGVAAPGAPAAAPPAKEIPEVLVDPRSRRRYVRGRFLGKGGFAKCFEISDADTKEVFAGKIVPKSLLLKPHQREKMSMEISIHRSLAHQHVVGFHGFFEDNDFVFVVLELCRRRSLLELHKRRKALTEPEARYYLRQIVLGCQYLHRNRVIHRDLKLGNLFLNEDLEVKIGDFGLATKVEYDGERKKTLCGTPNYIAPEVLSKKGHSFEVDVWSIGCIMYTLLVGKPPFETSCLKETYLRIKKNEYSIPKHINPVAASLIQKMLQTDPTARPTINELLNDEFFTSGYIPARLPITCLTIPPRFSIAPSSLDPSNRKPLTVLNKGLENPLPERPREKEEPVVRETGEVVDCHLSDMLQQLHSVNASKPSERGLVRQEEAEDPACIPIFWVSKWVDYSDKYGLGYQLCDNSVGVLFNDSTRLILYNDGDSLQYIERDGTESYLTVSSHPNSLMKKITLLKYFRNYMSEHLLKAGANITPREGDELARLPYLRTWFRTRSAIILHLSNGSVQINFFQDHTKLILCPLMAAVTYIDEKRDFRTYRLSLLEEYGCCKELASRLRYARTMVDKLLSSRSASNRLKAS
Procedure, shortened: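 HeLa cells stably expressing LgBit, with HiBit knocked in at the C-terminus of endogenous Plk1, released from a 24 h 2 mM thymidine block and grown 18 h. Endurazine added, then compound at 300 nM; luminescence tracked in real time, expressed as ratio to DMSO.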

SMILES	Activity: ratio of the luminescense value of each Exemplary Compound treatment group to DMSO treatment group
COc1cc(C(=O)NC2CCN(CCNc3cccc4c3C(=O)N(C3CCC(=O)NC3=O)C4=O)CC2)c(F)cc1Nc1ncc2c(n1)N(C1CCCC1)CC(F)(F)C(=O)N2C (stereo not shown) [Compound 1, 4-((9-cyclopentyl-7,7-difluoro-5-methyl-6-oxo-6,7,8,9-tetrahydro-5H-pyrimido[4,5-b][1,4]diazepin-2-yl)amino)-N-(1-(2-((2-(2,6-dioxopiperidin-3-yl)-1,3-dioxoisoindolin-4-yl)amino)ethyl)piperidin-4-yl)-2-fluoro-5-methoxybenzamide]	++ (++<0.6)
COc1cc(N2CCC(CCN3CCN(c4ccc5c(c4)C(=O)N(C4CCC(=O)NC4=O)C5=O)CC3)CC2)c(F)cc1Nc1ncc2c(n1)N(C1CCCC1)CC(F)(F)C(=O)N2C (stereo not shown) [Compound 112, 5-(4-(2-(1-(4-((9-cyclopentyl-7,7-difluoro-5-methyl-6-oxo-6,7,8,9-tetrahydro-5H-pyrimido[4,5-b][1,4]diazepin-2-yl)amino)-2-fluoro-5-methoxyphenyl)piperidin-4-yl)ethyl)piperazin-1-yl)-2-(2,6-dioxopiperidin-3-yl)isoindoline-1,3-dione]	+ (+<0.7)
COc1cc(C(=O)N2CCC(CN3CCN(c4cc5c(cc4F)C(=O)N(C4CCC(=O)NC4=O)C5=O)CC3)CC2)ccc1Nc1ncc2c(n1)N(C1CCCC1)CC(F)(F)C(=O)N2C (stereo not shown) [Compound 101, 5-(4-((1-(4-((9-cyclopentyl-7,7-difluoro-5-methyl-6-oxo-6,7,8,9-tetrahydro-5H-pyrimido[4,5-b][1,4]diazepin-2-yl)amino)-3-methoxybenzoyl)piperidin-4-yl)methyl)piperazin-1-yl)-2-(2,6-dioxopiperidin-3-yl)-6-fluoroisoindoline-1,3-dione]	++ (++<0.6)
COc1cc(C(=O)N2CCN(CCCN3CCN(c4cccc5c4C(=O)N(C4CCC(=O)NC4=O)C5=O)CC3)CC2)ccc1Nc1ncc2c(n1)N(C1CCCC1)CC(F)(F)C(=O)N2C (stereo not shown) [Compound 87, 4-(4-(3-(4-(4-((9-cyclopentyl-7,7-difluoro-5-methyl-6-oxo-6,7,8,9-tetrahydro-5H-pyrimido[4,5-b][1,4]diazepin-2-yl)amino)-3-methoxybenzoyl)piperazin-1-yl)propyl)piperazin-1-yl)-2-(2,6-dioxopiperidin-3-yl)isoindoline-1,3-dione]	++ (++<0.6)
COc1cc(C(=O)NC2CCN(C(=O)CCCCN3CCN(c4cccc5c4C(=O)N(C4CCC(=O)NC4=O)C5=O)CC3)CC2)ccc1Nc1ncc2c(n1)N(C1CCCC1)CC(F)(F)C(=O)N2C (stereo not shown) [Compound 65, 4-((9-cyclopentyl-7,7-difluoro-5-methyl-6-oxo-6,7,8,9-tetrahydro-5H-pyrimido[4,5-b][1,4]diazepin-2-yl)amino)-N-(1-(5-(4-(2-(2,6-dioxopiperidin-3-yl)-1,3-dioxoisoindolin-4-yl)piperazin-1-yl)pentanoyl)piperidin-4-yl)-3-methoxybenzamide]	++ (++<0.6)
COc1cc(C(=O)NC2CCN(C[C@@H]3CCN(c4cccc5c4C(=O)N(C4CCC(=O)NC4=O)C5=O)C3)CC2)ccc1Nc1ncc2c(n1)N(C1CCCC1)CC(F)(F)C(=O)N2C (stereo partly drawn) [Compound 47, 4-((9-cyclopentyl-7,7-difluoro-5-methyl-6-oxo-6,7,8,9-tetrahydro-5H-pyrimido[4,5-b][1,4]diazepin-2-yl)amino)-N-(1-(((3S)-1-(2-(2,6-dioxopiperidin-3-yl)-1,3-dioxoisoindolin-4-yl)pyrrolidin-3-yl)methyl)piperidin-4-yl)-3-methoxybenzamide]	++ (++<0.6)
COc1cc(C(=O)NC2CCN(C(=O)CCCNc3ccc4c(c3)C(=O)N(C3CCC(=O)NC3=O)C4=O)CC2)c(F)cc1Nc1ncc2c(n1)N(C1CCCC1)CC(F)(F)C(=O)N2C (stereo not shown) [Compound 35, 4-((9-cyclopentyl-7,7-difluoro-5-methyl-6-oxo-6,7,8,9-tetrahydro-5H-pyrimido[4,5-b][1,4]diazepin-2-yl)amino)-N-(1-(4-((2-(2,6-dioxopiperidin-3-yl)-1,3-dioxoisoindolin-5-yl)amino)butanoyl)piperidin-4-yl)-2-fluoro-5-methoxybenzamide]	+ (+<0.7)
COc1cc(C(=O)NC2CCN(CCOc3ccc4c(c3)C(=O)N(C3CCC(=O)NC3=O)C4=O)CC2)c(F)cc1Nc1ncc2c(n1)N(C1CCCC1)CC(F)(F)C(=O)N2C (stereo not shown) [Compound 3, 4-((9-cyclopentyl-7,7-difluoro-5-methyl-6-oxo-6,7,8,9-tetrahydro-5H-pyrimido[4,5-b][1,4]diazepin-2-yl)amino)-N-(1-(2-((2-(2,6-dioxopiperidin-3-yl)-1,3-dioxoisoindolin-5-yl)oxy)ethyl)piperidin-4-yl)-2-fluoro-5-methoxybenzamide]	++ (++<0.6)
C=C[C@]1(F)CN(C2CCCC2)c2nc(Nc3ccc(C(=O)NC4CCN(C(=O)CCN5CCN(c6cccc7c6C(=O)N(C6CCC(=O)NC6=O)C7=O)CC5)CC4)cc3OC)ncc2N(C)C1=O (single isomer, unassigned) [Compound 109]	+ (+<0.7)
COc1cc(C(=O)NC2CCCC(N(C)C3CCN(c4cccc5c4C(=O)N(C4CCC(=O)NC4=O)C5=O)CC3)C2)ccc1Nc1ncc2c(n1)N(C(C)C)CC(F)(F)C(=O)N2C (stereo not shown) [Compound 166, 4-((7,7-difluoro-9-isopropyl-5-methyl-6-oxo-6,7,8,9-tetrahydro-5H-pyrimido[4,5-b][1,4]diazepin-2-yl)amino)-N-(3-((1-(2-(2,6-dioxopiperidin-3-yl)-1,3-dioxoisoindolin-4-yl)piperidin-4-yl)(methyl)amino)cyclohexyl)-3-methoxybenzamide]	+ (+<0.7)

The next lines start with the values.

Activity: ratio of the luminescense value of each Exemplary Compound treatment group to DMSO treatment group	SMILES
+ (+<0.7)	COc1cc(C(=O)NC2CCN(C(=O)CCCCCOC3CN(c4cccc5c4C(=O)N(C4CCC(=O)NC4=O)C5=O)C3)CC2)ccc1Nc1ncc2c(n1)N(C1CCCC1)CC(F)(F)C(=O)N2C (stereo not shown) [Compound 199, 4-((9-cyclopentyl-7,7-difluoro-5-methyl-6-oxo-6,7,8,9-tetrahydro-5H-pyrimido[4,5-b][1,4]diazepin-2-yl)amino)-N-(1-(6-((1-(2-(2,6-dioxopiperidin-3-yl)-1,3-dioxoisoindolin-4-yl)azetidin-3-yl)oxy)hexanoyl)piperidin-4-yl)-3-methoxybenzamide]
++ (++<0.6)	COc1cc(C(=O)NC2CCC(N3CCN(CCOCCNc4ccc5c(c4)C(=O)N(C4CCC(=O)NC4=O)C5=O)CC3)CC2)c(F)cc1Nc1ncc2c(n1)N(C1CCCC1)CC(F)(F)C(=O)N2C (stereo not shown) [Compound 193, 4-((9-cyclopentyl-7,7-difluoro-5-methyl-6-oxo-6,7,8,9-tetrahydro-5H-pyrimido[4,5-b][1,4]diazepin-2-yl)amino)-N-((1r,4r)-4-(4-(2-(2-((2-(2,6-dioxopiperidin-3-yl)-1,3-dioxoisoindolin-5-yl)amino)ethoxy)ethyl)piperazin-1-yl)cyclohexyl)-2-fluoro-5-methoxybenzamide]
++ (++<0.6)	COc1cc(C(=O)NCCOCCOCCNc2cccc3c2C(=O)N(C2CCC(=O)NC2=O)C3=O)c(N2CCN(C)CC2)cc1Nc1ncc2c(n1)N(C1CCCC1)CC(F)(F)C(=O)N2C (stereo not shown) [Compound 222, 4-((9-cyclopentyl-7,7-difluoro-5-methyl-6-oxo-6,7,8,9-tetrahydro-5H-pyrimido[4,5-b][1,4]diazepin-2-yl)amino)-N-(2-(2-(2-((2-(2,6-dioxopiperidin-3-yl)-1,3-dioxoisoindolin-4-yl)amino)ethoxy)ethoxy)ethyl)-5-methoxy-2-(4-methylpiperazin-1-yl)benzamide]
+ (+<0.7)	COc1cc(C(=O)NN2CCN(C3CN(c4cccc5c4C(=O)N(C4CCC(=O)NC4=O)C5=O)C3)CC2)ccc1Nc1ncc2c(n1)N(C1CCCC1)CC(F)(F)C(=O)N2C (stereo not shown) [Compound 200, 4-((9-cyclopentyl-7,7-difluoro-5-methyl-6-oxo-6,7,8,9-tetrahydro-5H-pyrimido[4,5-b][1,4]diazepin-2-yl)amino)-N-(4-(1-(2-(2,6-dioxopiperidin-3-yl)-1,3-dioxoisoindolin-4-yl)azetidin-3-yl)piperazin-1-yl)-3-methoxybenzamide]
++ (++<0.6)	COc1cc(C(=O)N2CCN(CCCNc3ccc4c(c3)C(=O)N(C3CCC(=O)NC3=O)C4=O)CC2)c(F)cc1Nc1ncc2c(n1)N(C1CCCC1)CC(F)(F)C(=O)N2C (stereo not shown) [Compound 186, 5-((3-(4-(4-((9-cyclopentyl-7,7-difluoro-5-methyl-6-oxo-6,7,8,9-tetrahydro-5H-pyrimido[4,5-b][1,4]diazepin-2-yl)amino)-2-fluoro-5-methoxybenzoyl)piperazin-1-yl)propyl)amino)-2-(2,6-dioxopiperidin-3-yl)isoindoline-1,3-dione]
++ (++<0.6)	COc1cc(C(=O)NCCOCCOCCOCCNc2cccc3c2C(=O)N(C2CCC(=O)NC2=O)C3=O)c(N2CCN(C)CC2)cc1Nc1ncc2c(n1)N(C1CCCC1)CC(F)(F)C(=O)N2C (stereo not shown) [Compound 223, 4-((9-cyclopentyl-7,7-difluoro-5-methyl-6-oxo-6,7,8,9-tetrahydro-5H-pyrimido[4,5-b][1,4]diazepin-2-yl)amino)-N-(2-(2-(2-(2-((2-(2,6-dioxopiperidin-3-yl)-1,3-dioxoisoindolin-4-yl)amino)ethoxy)ethoxy)ethoxy)ethyl)-5-methoxy-2-(4-methylpiperazin-1-yl)benzamide]
